Results taken from publication PMC4922569, “Antifibrotic Effects of the Dual CCR2/CCR5 Antagonist Cenicriviroc in Animal Models of Liver and Kidney Fibrosis” (PLoS ONE, 2016).
Where a name gives a salt, the structure may show the parent alone.

How the values were obtained:
[1] = test system: monocyte/macrophage recruitment; test: Thioglycollate (TG)-induced mouse model of peritonitis: peritoneal lavage monocyte/macrophage counts; format: in vivo; conditions: for Decrease in peritoneal lavage monocyte/macrophage counts compared to vehicle control: 48 h post-TG
Method: A murine thioglycollate (TG)-induced model of peritonitis, where acute inflammation induced by intraperitoneal (IP) injection of TG results in a rapid increase in monocyte/macrophage migration into the peritoneal cavity, was employed to assess the effects of CVC on cell recruitment in vivo. The protocol was approved by the IACUC of Charles River Laboratories Preclinical Services, Montreal (PCS-MTL). The care and use of animals was conducted in accordance with the guidelines of the US National Research Council and the Canadian Council on Animal Care.
(§1) Male C57BL/6 mice (n = 44; 8–10 weeks of age; Charles River Laboratories, Canada) were allocated to receive treatments via oral gavage (PO) on Days 1–5 in the following groups: non-disease control, vehicle control twice daily (BID), CVC 5 mg/kg/day (CVC5) BID, CVC 20 mg/kg/day (CVC20) BID, CVC 100 mg/kg/day (CVC100) BID, CVC20 QD, and positive control dexamethasone (corticosteroid known to reduce inflammation in a variety of animal models) 1 mg/kg QD (S1 Table). On Day 4, peritonitis was induced via IP injection of TG 3.85% (1 mL/animal) 2 hours post-dose in all groups except non-disease controls. Study endpoints included: peritoneal lavage cell counts and pharmacokinetic (PK) evaluation. Animals were sacrificed 48 hours post-TG injection by isoflurane inhalation, and peritoneal lavage and blood samples (0.7 mL) were collected. Differential cell counts were assessed in peritoneal lavage samples using an Advia® Hematology System (Siemens Healthcare Diagnostics, USA) with multispecies software and an analysis software designed for mouse peritoneal fluid on Advia® 120 (LabThruPut, USA). A 0.3 mL aliquot of the blood sample was processed to plasma for PK analysis.
In the peritonitis mouse model, one-way analysis of variance with post-hoc Dunnett’s test was performed, using GraphPad Prism® (GraphPad Software, Inc., USA), on differential cell counts obtained from lavage in treatment groups versus the vehicle-control group. For the ex vivo migration of mouse monocytes, statistical significance was determined by a Student’s t test.

[2] = CVC plasma levels in the TG-induced model of peritonitis (LC/MS/MS); format: in vivo; conditions: male, C57BL/6, mouse, oral, 20 mg/kg/day, CVC20 QD, n = 5, 26 hours post-dose, read-out: CVC trough plasma level
Method: as §1
CVC plasma levels (minimum and maximum) were determined by KCAS Bioanalytical Services, USA, using a validated liquid chromatography-tandem mass spectrometry (LC/MS/MS) plasma method (50 μL assay, range 10.0−1920.0 ng/mL).

[3] = Body and liver weights, NASH model; format: in vivo, mouse; conditions: mean±SD
Method: NASH was induced in male C57BL/6 mice (Charles River Laboratories, Japan) via subcutaneous injection of 200 μg of streptozotocin 2 days post-birth (causing mild islet inflammation and islet destruction) plus a high-fat diet (57 kcal% fat) from 4 weeks of age (sequentially causing fatty changes to the liver, NASH and fibrosis). From Weeks 6 to 9, three groups (n = 9/group) received vehicle control, CVC20 or CVC100 BID PO (S1 Table). At Week 9, six animals per group were sacrificed for assessment of liver fibrosis and Non-Alcoholic Fatty Liver Disease (NAFLD) Activity Score (NAS). The animals were sacrificed by exsanguination through direct cardiac puncture under ether anesthesia. Study endpoints included: body and liver weights, plasma biochemistry (e.g. ALT and CCL2), extracellular matrix protein in liver tissue (hydroxyproline content), mRNA expression (collagen type 1, tumor necrosis factor-alpha, MCP-1, TIMP1) and histopathological analyses. Blood samples were collected and plasma samples derived for biochemistry assessments. Sections were cut from paraffin blocks of liver tissue, prefixed in Bouin’s solution and stained with H&E for histological examination.
Body weight (measured before and during treatment) and sacrificed animal body and liver/kidney/spleen weights were recorded.

[4] = test system: CCR2 on monocytes; set-up: method as in earlier work; conditions: at 6 nmol/L; human PBMC ex vivo; cited from earlier work
[5] = test system: CCR5 on CD4+ and CD8+ T-cells; set-up: method as in earlier work; conditions: human PBMC ex vivo, cited from earlier work
[6] = set-up: method as in PMID 21317794, PMID 21486960, PMID 16251299; conditions: in humans; cited from earlier work
[7] = in mice; cited from earlier work
[8] = test system: hepatic fibrosis scores (APRI, FIB-4, ELF); conditions: cited from earlier work
[9] = test system: MCD-induced NASH; conditions: cited from earlier work
[10] = between Baseline and Week 24, maintained at Week 48

SMILES: CCCCOCCOc1ccc(-c2ccc3c(c2)/C=C(/C(=O)Nc2ccc([S@@+]([O-])Cc4cncn4CCC)cc2)CCCN3CC(C)C)cc1 [CVC, cenicriviroc mesylate]
- Decrease in peritoneal lavage monocyte/macrophage counts compared to vehicle control ([1]; CVC5 (5 mg/kg/day) BID PO Days 1-5): 5.7%
- Decrease in peritoneal lavage monocyte/macrophage counts compared to vehicle control ([1]; CVC20 (20 mg/kg/day) BID PO Days 1-5): 45.2%
- Decrease in peritoneal lavage monocyte/macrophage counts compared to vehicle control ([1]; CVC20 (20 mg/kg/day) QD PO Days 1-5): 26.0%
- Decrease in peritoneal lavage monocyte/macrophage counts compared to vehicle control ([1]; CVC100 (100 mg/kg/day) BID PO Days 1-5): 76.5%
- Greater reduction in monocyte/macrophage count compared to dexamethasone ([1]; CVC100 BID vs dexamethasone 1 mg/kg QD, p < 0.001): 62.1%
- Doses achieving statistically significant decrease in monocyte/macrophage recruitment ([1]; p < 0.05 vs vehicle control): ≥ 20 mg/kg/day
- concentration at 26 h [2]: 0.0257 ± 0.0081 µg/mL
- Final body weight ([3]; CVC 20 mg/kg/day): 19.5 ± 2.0 g
- Liver weight ([3]; CVC 20 mg/kg/day): 1334 ± 99 mg
- Liver-to-body weight ratio ([3]; CVC 20 mg/kg/day): 6.9±1.0%
- Final body weight ([3]; CVC 100 mg/kg/day): 18.7 ± 0.9 g
- Liver weight ([3]; CVC 100 mg/kg/day): 1307 ± 119 mg
- Liver-to-body weight ratio ([3]; CVC 100 mg/kg/day): 7.0±0.8%
- Receptor occupancy for CCR2 on monocytes [4]: ~ 98%
- Receptor occupancy for CCR5 on CD8+ T-cells ([5]; at 2.3 nmol/L): ≥ 90%
- Receptor occupancy for CCR5 on CD4+ T-cells ([5]; at 3.1 nmol/L): ≥ 90%
- Plasma half-life [6]: 30 to 40 h
- Half-life [7]: ~ 2 hours
- Enhanced liver fibrosis (ELF) scores ([8]; Week 48, p < 0.0001): significant reduction
- Decrease in proportion of subjects with APRI score ≥0.5 [8, 10]: 75%
- Decrease in proportion of subjects with FIB-4 score ≥1.45 [8, 10]: 73%
- Infiltration of Ly6Chi monocyte-derived macrophages into the liver ([9]; MCD model, preliminary data): significantly decreased
- Hepatic fibrosis (Sirius red staining and hydroxyproline content) ([9]; chronic MCD model of NASH): reduced
- Steatohepatitis, assessed by histological NAFLD activity score ([9]; chronic MCD model of NASH): significantly ameliorated
